Laboratory results reported in paper PMC7074965, “Discovery of Two Brominated Oxindole Alkaloids as Staphylococcal DNA Gyrase and Pyruvate Kinase Inhibitors via Inverse Virtual Screening” (Microorganisms, 2020).
In brackets after ≈: the same amount, converted by molar mass. Like-named read-outs stand apart in the source and are kept apart here.

How the values were obtained:
[1] = test system: Bacillus subtilis ATCC5230; experiment: MIC determination, twofold serial dilution; assay type: cell-based; settings: read-out: MIC (B. subtilis)
Procedure: (§1) All the bacterial strains were maintained at −80 °C in 15% glycerol nutrient broth (Oxoid, Milan, Italy).
(§2) The twofold serial dilution approach was applied to determine the MICs of each compound. Each tested compound was dissolved in DMSO (Sigma, Milan, Italy) to prepare the test solutions. Many colonies of each tested bacterial strain were inoculated in 10 mL of sterilized Mueller–Hinton broth (MHB) (Oxoid) and incubated at 37 °C for 18–24 h. […] All data are reported as the mean of three independent experiments.

MRSA ATCC33591 = experiment: MIC determination, twofold serial dilution; assay type: cell-based; settings: Staphylococcus aureus, read-out: MIC (MRSA)
Procedure: as §1, §2

[2] = test system: Escherichia coli ATCC 259228; experiment: MIC determination, twofold serial dilution; assay type: cell-based; settings: read-out: MIC (E. coli)
Procedure: as §1, §2

[3] = test system: Pseudomonas aeruginosa ATCC9027; experiment: MIC determination, twofold serial dilution; assay type: cell-based; settings: read-out: MIC (P. aeruginosa)
Procedure: as §1, §2

Pim-1 kinase = test system: Pim-1 kinase; design: method as in PMID 30061488, PMID 30525020, PMID 31395834; settings: previously reported; cited from earlier work
[4] = Bacillus subtilis, ATCC5230, 24 h incubation, mean of three experiments
[5] = 24 h incubation, mean of three experiments
[6] = Escherichia coli, ATCC259228, 24 h incubation, mean of three experiments
[7] = Pseudomonas aeruginosa, ATCC9027, 24 h incubation, mean of three experiments
[8] = Bacillus subtilis, ATCC5230, 24 h
[9] = Escherichia coli, ATCC259228, 24 h
[10] = Pseudomonas aeruginosa, ATCC9027, 24 h

Compound	MIC [1, 4]	MIC (MRSA ATCC33591; [5])	MIC [2, 6]	MIC [3, 7]	MIC [1, 5]	MIC [2, 5]	MIC [3, 5]	further results
COc1ccc(C(=O)O)cc1 [Compound 16, p-Anisic acid]	> 256 µM	> 256 µM	> 256 µM	> 256 µM				
CC(c1c[nH]c2ccccc12)c1c[nH]c2ccccc12 [Compound 4, Vibrindole]	64 µM (≈ 16.7 µg/mL)	64 µM (≈ 16.7 µg/mL)	128 µM (≈ 33.3 µg/mL)	> 256 µM				
COC(=O)c1ccc(OC)cc1 [Compound 17, p-Anisic acid methyl ester]					> 256 µM	> 256 µM	> 256 µM	
CC(C)[C@@H](C)/C=C/[C@@H](C)[C@H]1CC[C@@H]2[C@]1(C)CC[C@H]1[C@]23C=C[C@]2(C[C@@H](O)CC[C@]12C)OO3 [Compound 33, Ergosterol peroxide]	> 256 µM	> 256 µM	> 256 µM	> 256 µM				
O=C1Nc2ccccc2C1=O [Compound 8, Isatine]					> 256 µM	> 256 µM	> 256 µM	
O=C(O)c1ccc2ccccc2c1O [Compound 26, 1-Hydroxy-2-naphthoic acid]	> 256 µM	> 256 µM	> 256 µM	> 256 µM				
CC(C)CCC[C@@H](C)[C@H]1CC[C@H]2[C@@H]3CC[C@H]4CC(=O)CC[C@]4(C)[C@H]3CC[C@]12C [Compound 30, 5α-Cholestanone]					> 256 µM	> 256 µM	> 256 µM	
CCCCCCCCCCC/C=C\CCCCC(=O)O [Compound 36, Petroselenic acid]					> 256 µM	> 256 µM	> 256 µM	
CC(C)CCC[C@@H](C)[C@H]1CC[C@H]2[C@@H]3CCC4=CC(=O)CC[C@]4(C)[C@H]3CC[C@]12C [Compound 29, Cholestenone]					> 256 µM	> 256 µM	> 256 µM	
CC[C@H](C=C[C@@H](C)[C@H]1CC[C@H]2[C@@H]3CC(=O)C4=CC(=O)CC[C@]4(C)[C@H]3CC[C@]12C)C(C)C [Compound 32, Stigmasta-4,22-dien-3,6-dione]					> 256 µM	> 256 µM	> 256 µM	
CC[C@H](/C=C/[C@@H](C)[C@H]1CC[C@H]2[C@@H]3CCC4=CC(=O)CC[C@]4(C)[C@H]3CC[C@]12C)C(C)C [Compound 31, Stigmasterone]					> 256 µM	> 256 µM	> 256 µM	
Nc1ccccc1C(=O)O [Compound 19, Anthranilic acid]								MIC [1, 8]: > 256 µM; MIC (MRSA ATCC33591; 24 h): > 256 µM; MIC [2, 9]: > 256 µM; MIC [3, 10]: > 256 µM
COc1ccc(C(=O)OCc2ccccc2)cc1 [Compound 22, Benzyl anisate]					> 256 µM	> 256 µM	> 256 µM	
O=C(O)c1cc(O)c2ccccc2c1O [Compound 27, 1,4 Dihydroxy-2-naphthoic acid]					> 256 µM	> 256 µM	> 256 µM	
COc1ccc(/C=C/C(=O)/C=C2/C(=O)Nc3cc(Br)ccc32)cc1 [Compound 7, Saccharomon osp orine A]	> 256 µM	> 256 µM	> 256 µM	> 256 µM				Pim-1 kinase inhibition (Pim-1 kinase): potent cytotoxic Pim-1 kinase inhibitors
O=C1Nc2cc(Br)ccc2C1=O [Compound 10, 6-Bromoisatine]	128 µM (≈ 28.9 µg/mL)	128 µM (≈ 28.9 µg/mL)	128 µM (≈ 28.9 µg/mL)	> 256 µM				
COc1cc(/C=C/C(=O)O)cc(OC)c1O [Compound 24, Sinapic acid]					> 256 µM	> 256 µM	> 256 µM	

Compound	MIC [1, 4]	MIC (MRSA ATCC33591; [5])	MIC [2, 6]	MIC [3, 7]	MIC [1, 5]	MIC [2, 5]	MIC [3, 5]	further results
CC1=CCC2C(CC[C@@]2(C)O)C(C)(C)C1CC[C@@H]1[C@@]2(C)CC[C@@H](O)C(C)(C)O[C@@H]2CC[C@]1(C)O (stereo partly drawn) [Compound 35, Sipholenol A]	> 256 µM	> 256 µM	> 256 µM	> 256 µM				
CC1=CCC2C(CC[C@@]2(C)O)C(C)(C)C1CC[C@@H]1[C@@]2(C)CCC(=O)C(C)(C)O[C@@H]2CC[C@]1(C)O (stereo partly drawn) [Compound 34, Sipholenone A]	> 256 µM	> 256 µM	> 256 µM	> 256 µM				
O=C1Nc2ccccc2C1(c1c[nH]c2ccccc12)c1c[nH]c2ccccc12 [Compound 3, Trisindoline]	16 µM (≈ 5.81 µg/mL)	32 µM (≈ 11.6 µg/mL)	> 256 µM	> 256 µM				
COc1cc(C(=O)O)cc(OC)c1O [Compound 18, Syringic acid]	> 256 µM	> 256 µM	> 256 µM	> 256 µM				
O=C(O)Cc1ccccc1 [Compound 25, Phenyl acetic acid]								MIC [1, 8]: > 256 µM; MIC (MRSA ATCC33591; 24 h): > 256 µM; MIC [2, 9]: > 256 µM; MIC [3, 10]: > 256 µM
O=C(O)C(=O)Cc1c[nH]c2ccccc12 [Compound 15, Indole-3-pyruvic acid]	> 256 µM	> 256 µM	> 256 µM	> 256 µM				
Callysterol [Compound 28]					> 256 µM	> 256 µM	> 256 µM	
O=C1Nc2cc(Br)ccc2[C@@]1(O)c1c[nH]c2ccccc12 [Compound 6, (S) 6-bromo-3-hydroxy-3-(1H-indol-3-yl) indolin-2-one]								MIC [1, 8]: 128 µM (≈ 43.9 µg/mL); MIC (MRSA ATCC33591; 24 h): > 256 µM; MIC [2, 9]: > 256 µM; MIC [3, 10]: > 256 µM
CC(=O)/C=C1/C(=O)Nc2ccc(Br)cc21 [Compound 11, (E)-5-bromo-3-(2-oxopropylidene)indolin-2-one]					> 256 µM	> 256 µM	> 256 µM	
COc1cc(C(C)=O)cc(OC)c1O [Compound 23, Acetosyringone]	> 256 µM	> 256 µM	> 256 µM	> 256 µM				
O=Cc1ccc(O)cc1 [Compound 20, p-Hydroxy benzaldehyde]					> 256 µM	> 256 µM	> 256 µM	
OCCc1c[nH]c2ccccc12 [Compound 14, Tryptophol]	> 256 µM	> 256 µM	> 256 µM	> 256 µM				
O=Cc1c[nH]c2ccccc12 [Compound 13, Indole-3-carbaldehyde]	> 256 µM	> 256 µM	> 256 µM	> 256 µM				
CC(=O)C[C@]1(O)C(=O)Nc2cc(Br)ccc21 [Compound 5, Convolutamidine F]	128 µM (≈ 36.4 µg/mL)	128 µM (≈ 36.4 µg/mL)	> 256 µM	> 256 µM				Pim-1 kinase inhibition (Pim-1 kinase): potent cytotoxic Pim-1 kinase inhibitors
Cc1c[nH]c2ccccc12 [Compound 12, Skatole]					> 256 µM	> 256 µM	> 256 µM	
O=Cc1cc(O)ccc1O [Compound 21, Gentisaldehyde]					> 256 µM	> 256 µM	> 256 µM	
O=C1Nc2ccc(Br)cc2C1=O [Compound 9, 5-Bromoisatine]	128 µM (≈ 28.9 µg/mL)	128 µM (≈ 28.9 µg/mL)	> 256 µM	> 256 µM				
